Measurements published in paper PMC2885599 (Current Chemical Genomics, 2010).
Each block holds one compound with its values, some of them ahead of it.

Legend:
[1] = test system: unphosphorylated Met; details: cited from earlier work
[2] = test system: phosphorylated Met; details: read-out: IC50 on phosphorylated Met; cited from earlier work
[3] = test system: phosphorylated enzyme (c-Met); details: phosphorylated vs unphosphorylated enzyme; cited from earlier work
[4] = target: phosphorylated c-Met (Homo sapiens, UniProt P08581); assay: c-Met kinase HTRF assay, phosphorylated form; details: IC50 on the phosphorylated form
[5] = target: unphosphorylated c-Met (Homo sapiens, UniProt P08581); assay: c-Met kinase HTRF assay, unphosphorylated form; type: biochemical
[6] = test system: SNU5 gastric cancer cell line in which c-Met is amplified; assay: SNU5 proliferation assay; type: cell-based; details: Homo sapiens, SNU-5, read-out: IC50 in SNU5 proliferation assays

Chain of phosphorylated c-Met (P08581 956-1390 limits assumed): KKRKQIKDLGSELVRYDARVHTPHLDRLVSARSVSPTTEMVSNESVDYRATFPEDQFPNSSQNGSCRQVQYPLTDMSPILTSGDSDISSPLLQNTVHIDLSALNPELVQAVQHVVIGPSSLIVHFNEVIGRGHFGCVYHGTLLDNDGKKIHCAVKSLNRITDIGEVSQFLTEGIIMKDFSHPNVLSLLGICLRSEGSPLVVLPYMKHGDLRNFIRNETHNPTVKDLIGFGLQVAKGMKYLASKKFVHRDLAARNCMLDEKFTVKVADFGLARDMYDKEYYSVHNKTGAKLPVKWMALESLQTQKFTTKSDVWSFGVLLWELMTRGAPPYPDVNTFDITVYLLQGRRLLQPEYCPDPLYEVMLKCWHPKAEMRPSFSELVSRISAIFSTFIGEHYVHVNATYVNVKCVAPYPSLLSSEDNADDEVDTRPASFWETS
Chain of unphosphorylated c-Met (P08581 956-1390 limits assumed): as above

Structure (SMILES): COc1cc2c(Oc3ccc(-c4cnc(Cc5ccccc5)n(C)c4=O)cc3F)ccnc2cc1OCCCN1CCOCC1 [AM7, 5-(3-fluoro-4-((6-(methyloxy)-7-((3-(4 morpholinyl)prpyl)oxy)-4-quinolinyl)oxy)phenyl)-3-methyl-2-(phenylmethyl)-4(3H)-pyrimidin-one]
- fold more potent on unphosphorylated Met [1]: more than 3 fold
- IC50 ([1]; read-out: IC50 on unphosphorylated Met): 5 nM
- IC50 [2]: 17 nM

Structure (SMILES): CN(C[C@@H]1COCCO1)S(=O)(=O)Nc1ccc2ccc3ncc(-c4cnn(C)c4)cc3c(=O)c2c1 [MK2461]
- binds to the phosphorylated enzyme tighter [3]: 6 fold

- IC50 [4]: 275 nM
- difference in potency, phosphorylated vs unphosphorylated form [5]: 55 fold
- IC50 [6]: 30 nM
Structure (SMILES): Cc1[nH]c(/C=C2\C(=O)Nc3ccc(S(=O)(=O)N(C)c4cccc(Cl)c4)cc32)c(C)c1C(=O)N1CCN(C)CC1 [SU11274]
